The target in this test is T1, Tyrosine-protein phosphatase non-receptor type 11 (Homo sapiens, UniProt Q06124).
T1 sequence (Q06124 whole entry): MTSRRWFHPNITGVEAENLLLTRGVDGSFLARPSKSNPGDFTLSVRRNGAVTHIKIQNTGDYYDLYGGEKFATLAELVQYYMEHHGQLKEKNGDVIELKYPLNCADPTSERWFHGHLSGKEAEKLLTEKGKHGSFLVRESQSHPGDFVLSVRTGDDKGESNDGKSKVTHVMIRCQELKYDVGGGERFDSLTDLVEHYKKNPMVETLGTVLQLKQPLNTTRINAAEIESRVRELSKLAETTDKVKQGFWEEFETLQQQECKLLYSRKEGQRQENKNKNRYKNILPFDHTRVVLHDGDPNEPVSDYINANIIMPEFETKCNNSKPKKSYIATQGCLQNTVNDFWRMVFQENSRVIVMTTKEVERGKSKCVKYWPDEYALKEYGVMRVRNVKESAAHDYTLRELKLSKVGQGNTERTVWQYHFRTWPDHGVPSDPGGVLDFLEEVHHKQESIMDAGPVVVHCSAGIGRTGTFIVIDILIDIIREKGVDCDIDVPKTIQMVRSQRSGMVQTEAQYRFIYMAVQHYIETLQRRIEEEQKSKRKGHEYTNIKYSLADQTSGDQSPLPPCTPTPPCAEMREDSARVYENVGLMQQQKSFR
Briefly: Negative allosteric modulator activity at SHP2 (unknown origin).

Experimental findings from ChEMBL document CHEMBL4428068, “Allosteric Modulation of Phosphatase Activity May Redefine Therapeutic Value” (J Med Chem, 2016) are described below.

Usually IC50 stands for the concentration needed to halve the response being measured. High values mean lower potency, low ones higher potency. With `C[C@@H]1CN(c2ncc(-c3cccc(Cl)c3Cl)c(N)n2)C[C@H](C)N1`, half-maximal inhibition (IC50) required 12 µM.
